Measurements: paper PMC8123576 (International Journal of Molecular Sciences, 2021)
Where two headings read alike, the source gives them in different places.

Experiments:
A. flavus = experiment: microbe, parasite or virus in culture; format: cell-based, Aspergillus flavus; settings: 10 to 100 µM; complexes compared with their ligand
[1] = test system: aflatoxin accumulation by A. flavus; experiment: microbe, parasite or virus in culture; format: cell-based, Aspergillus flavus; settings: Aspergillus flavus
[2] = Cytotoxicity assay (CellTiter 96 AQueous One) on Hs27; format: cell-based, human; settings: human, Hs27 normal skin cells, Hs27, 24 h, dose 0 = 100.00, read-out: Growth inhibition data
Procedure: (§1) The best antifungal and/or antiaflatoxigenic compounds were tested to determine their cytotoxic activity against human normal cell lines deriving from lung (HFL1, ATCC and CCL-153), skin (Hs27, ATCC, CRL1634) and colon (Crl1790, ATCC, CCD 841 CoN) and a cell line deriving from a hematological tumor (U937, ATCC and CRL-3253). These different cell lines have been chosen to simulate the different human exposition routes to pesticide. Cell culture conditions have been previously reported. Compound cytotoxicity was determined using CellTiter 96® AQueous One Solution Cell Proliferation Assay (Promega Corporation, Madison, WI, USA). The very detailed protocol was described by Bartoli et al.. In brief, cells were seeded in a 96-well plate at a density of 5000 cells/well and after 24 h cells were treated with different concentrations of the compounds (0.5–1–5–10–50–100 µM). After the treatment period (24 h), the CellTiter Reagent was added to each well (20 µL/well) and the plate incubated for 4 h at 37 °C. The plate was then read at 485 nm in a multiwell plate reader (TECAN SpectraFluor Plus, Männedorf, Switzerland).

Hs27 cells = experiment: as above; format: cell-based, human; settings: Hs27 cells, 24 h treatment
Procedure: as §1

[3] = Cytotoxicity assay (CellTiter 96 AQueous One) on Crl1790; format: cell-based, human; settings: human, Crl1790 (CCD 841 CoN) normal colon cells, Crl1790, 24 h, dose 0 = 100.00, read-out: Growth inhibition data
Procedure: as §1

Crl1790 cells = experiment: as above; format: cell-based, human; settings: Crl1790 cells, 24 h, only at the highest concentration (100 µM)
Procedure: as §1

[4] = Cytotoxicity assay (CellTiter 96 AQueous One) on U937; format: cell-based, human; settings: human, U937 cells (hematological tumor line), U937, 24 h, dose 0 = 100.00, read-out: Growth inhibition data
Procedure: as §1

U937 cells [5] = experiment: as above; format: cell-based, human; settings: U937 cells, 24 h treatment
Procedure: as §1

U937 cells [6] = experiment: Alkaline Comet Assay; format: cell-based, human; settings: 24 h treatment, 25-100 µM
Procedure: Our standard protocol for the Alkaline Comet Assay (pH > 13) was previously described in great detail. The DNA-damaging effects of non-cytotoxic molecules were evaluated on U937 cells using 25 μM as the lowest concentration and 100 µM as the highest for 24 h treatment. After exposure, cell viability was checked using the trypan blue exclusion method: a viability of at least 70% compared to the negative control (DMSO) was used as a cut-off for further evaluating the level of DNA damage. After electrophoresis (DNA unwinding: 20 min; electrophoresis: 20 min, 0.78 V cm^−1, 300 mA), nucleoids stained with ethidium bromide (75 µL, 10 µg/mL) were examined with a Leica DMLS fluorescence microscope (excitation filter BP 515–560 nm, barrier filter LP 580 nm), using the software Comet Assay IV (Perceptive Instruments Ltd., Suffolk, UK). Alkaline Comet assay results are expressed as tail intensity percentage that measures the percentage of total cellular DNA found in the tail of each comet.

A. cepa = A. cepa toxicity test (root length); format: in vivo, Allium cepa; settings: for Roots Length: NC 2.07 ± 0.61
Procedure: A. cepa toxicity test: Twelve equal-sized young onion bulbs were exposed for 96 h in the dark to different concentrations of compounds dissolved in DMSO, changing the sample solution every day. […] Root macroscopic parameters such as turgescence, consistency, change in color and root tip shape, were used as toxicity indexes.

S. typhimurium TA98 = settings: for TA98 + S9 revertants/plate: NC 26.5 ± 5.4; for TA98 revertants/plate: NC 15.7 ± 4.9
S. typhimurium TA100 = settings: for TA100 + S9 revertants/plate: NC 106.5 ± 11.9; for TA100 revertants/plate: NC 95.8 ± 5.5
[7] = test system: S. typhimurium TA98 and TA100 strains; experiment: Ames test, overall mutagenicity verdict in bacteria; settings: TA98 and TA100, -S9 and +S9
[8] = read-out: A.I. (%) (aflatoxin accumulation inhibition)

In the case of `CC(=NNC(N)=S)c1cccs1` [2-actpTS, 2-acetylthiophenethiosemicarbazone], the “impact on fungal growth” value (A. flavus) is reported as “modest inhibitory activity”, the inhibition at 50 µM [1, 8] is reported as 58.3% and the inhibition at 100 µM [1, 8] is reported as 88.4%. For the same compound, the inhibition at 10 µM ([1]; read-out: percentage of aflatoxin accumulation inhibition) was 23%, the viability at 24 h, 0.5 µM ([2]; 0.5 µM) was 99.9 ± 7.65% and the viability at 24 h, 1 µM ([2]; 1 µM) was 97 ± 4.78%. The viability at 24 h, 5 µM ([2]; 5 µM) was 100 ± 5.97%, the viability at 24 h, 10 µM ([2]; 10 µM) was 97.7 ± 3.73% and the viability at 24 h, 50 µM ([2]; 50 µM) was 100 ± 9.25%. The viability at 24 h, 100 µM ([2]; 100 µM) was 87.3 ± 8.07%, the “cytotoxic effect” value (Hs27 cells) was “did not show cytotoxic effect” and the viability at 24 h, 0.5 µM ([3]; 0.5 µM) was 100 ± 3.63%. For the same compound, the viability at 24 h, 1 µM ([3]; 1 µM) was 95.1 ± 7.76%, the viability at 24 h, 5 µM ([3]; 5 µM) was 88.4 ± 2.25% and the viability at 24 h, 10 µM ([3]; 10 µM) was 89.1 ± 5.24%. The viability at 24 h, 50 µM ([3]; 50 µM) was 81.8 ± 3.48%, the viability at 24 h, 100 µM ([3]; 100 µM) was 62 ± 4.6% and the “cytotoxic activity” value (Crl1790 cells) was “mild cytotoxic activity”. The viability at 24 h, 0.5 µM ([4]; 0.5 µM) was 100 ± 9.43%, the viability at 24 h, 1 µM ([4]; 1 µM) was 100 ± 4.23% and the viability at 24 h, 5 µM ([4]; 5 µM) was 100 ± 6.71%. For the same compound, the viability at 24 h, 10 µM ([4]; 10 µM) was 100 ± 7.06%, the viability at 24 h, 50 µM ([4]; 50 µM) was 100 ± 3.6% and the viability at 24 h, 100 µM ([4]; 100 µM) was 94.7 ± 8.15%. For the same compound, the “50% inhibition of cell proliferation” value (U937 cells [5]) was “did not induce 50% inhibition of cell proliferation”, the “DNA damage in Alkaline Comet Assay” value (U937 cells [6]) was “did not induce significant DNA damage” and the “Roots Length” value (A. cepa; 10 µM) was 2.17 ± 0.53 cm. For the same compound, the “Roots Length” value (A. cepa; 25 µM) was 1.65 ± 0.43 cm, the “Roots Length” value (A. cepa; 50 µM) was 1.68 ± 0.39 cm and the “Roots Length” value (A. cepa; 100 µM) was 1.07 ± 0.23 cm. The EC50 (A. cepa; Allium cepa, read-out: EC50 (50% A. cepa root growth inhibition), 96 h exposure) was roughly 100 µM, the “TA98 + S9 MR (mutagenicity ratio)” value (S. typhimurium TA98; +S9, 0.1 µM/plate) was 0.9 and the “TA98 + S9 revertants/plate” value (S. typhimurium TA98; +S9, 0.1 µM/plate) was 25.0 ± 0.0 revertants/plate. The “TA98 + S9 MR (mutagenicity ratio)” value (S. typhimurium TA98; +S9, 1.0 µM/plate) was 1.4, the “TA98 + S9 revertants/plate” value (S. typhimurium TA98; +S9, 1.0 µM/plate) was 37.0 ± 4.2 revertants/plate and the “TA98 + S9 MR (mutagenicity ratio)” value (S. typhimurium TA98; +S9, 10.0 µM/plate) was 1.3. For the same compound, the “TA98 + S9 revertants/plate” value (S. typhimurium TA98; +S9, 10.0 µM/plate) was 34.0 ± 2.8 revertants/plate, the “TA98 + S9 MR (mutagenicity ratio)” value (S. typhimurium TA98; +S9, 50.0 µM/plate) was 1.2 and the “TA98 + S9 revertants/plate” value (S. typhimurium TA98; +S9, 50.0 µM/plate) was 31.5 ± 6.4 revertants/plate. For the same compound, the “TA98 + S9 MR (mutagenicity ratio)” value (S. typhimurium TA98; +S9, 100.0 µM/plate) was 1.2, the “TA98 + S9 revertants/plate” value (S. typhimurium TA98; +S9, 100.0 µM/plate) was 32.0 ± 2.8 revertants/plate and the “TA98 MR (mutagenicity ratio)” value (S. typhimurium TA98; -S9, 0.1 µM/plate) was 1.9. The TA98 revertants/plate (S. typhimurium TA98; -S9, 0.1 µM/plate) was 29.5 ± 3.5 revertants/plate, the “TA98 MR (mutagenicity ratio)” value (S. typhimurium TA98; -S9, 1.0 µM/plate) was 1.5 and the TA98 revertants/plate (S. typhimurium TA98; -S9, 1.0 µM/plate) was 23.5 ± 6.4 revertants/plate. The “TA98 MR (mutagenicity ratio)” value (S. typhimurium TA98; -S9, 10.0 µM/plate) was 1.0, the TA98 revertants/plate (S. typhimurium TA98; -S9, 10.0 µM/plate) was 16.0 ± 1.4 revertants/plate and the “TA98 MR (mutagenicity ratio)” value (S. typhimurium TA98; -S9, 50.0 µM/plate) was 1.4. For the same compound, the TA98 revertants/plate (S. typhimurium TA98; -S9, 50.0 µM/plate) was 22.5 ± 3.5 revertants/plate, the “TA98 MR (mutagenicity ratio)” value (S. typhimurium TA98; -S9, 100.0 µM/plate) was 1.3 and the TA98 revertants/plate (S. typhimurium TA98; -S9, 100.0 µM/plate) was 21.0 ± 0.0 revertants/plate. The “TA100 + S9 MR (mutagenicity ratio)” value (S. typhimurium TA100; +S9, 0.1 µM/plate) was 0.9, the “TA100 + S9 revertants/plate” value (S. typhimurium TA100; +S9, 0.1 µM/plate) was 98.0 ± 24.0 revertants/plate and the “TA100 + S9 MR (mutagenicity ratio)” value (S. typhimurium TA100; +S9, 1.0 µM/plate) was 1.0. For the same compound, the “TA100 + S9 revertants/plate” value (S. typhimurium TA100; +S9, 1.0 µM/plate) was 104.0 ± 15.6 revertants/plate, the “TA100 + S9 MR (mutagenicity ratio)” value (S. typhimurium TA100; +S9, 10.0 µM/plate) was 1.0 and the “TA100 + S9 revertants/plate” value (S. typhimurium TA100; +S9, 10.0 µM/plate) was 107.5 ± 0.7 revertants/plate. For the same compound, the “TA100 + S9 MR (mutagenicity ratio)” value (S. typhimurium TA100; +S9, 50.0 µM/plate) was 0.9, the “TA100 + S9 revertants/plate” value (S. typhimurium TA100; +S9, 50.0 µM/plate) was 90.5 ± 13.4 revertants/plate and the “TA100 + S9 MR (mutagenicity ratio)” value (S. typhimurium TA100; +S9, 100.0 µM/plate) was 0.8. For the same compound, the “TA100 + S9 revertants/plate” value (S. typhimurium TA100; +S9, 100.0 µM/plate) was 88.0 ± 8.5 revertants/plate, the “TA100 MR (mutagenicity ratio)” value (S. typhimurium TA100; -S9, 0.1 µM/plate) was 1.0 and the TA100 revertants/plate (S. typhimurium TA100; -S9, 0.1 µM/plate) was 92.0 ± 14.1 revertants/plate. The “TA100 MR (mutagenicity ratio)” value (S. typhimurium TA100; -S9, 1.0 µM/plate) was 1.1, the TA100 revertants/plate (S. typhimurium TA100; -S9, 1.0 µM/plate) was 101.5 ± 4.9 revertants/plate and the “TA100 MR (mutagenicity ratio)” value (S. typhimurium TA100; -S9, 10.0 µM/plate) was 1.1. The TA100 revertants/plate (S. typhimurium TA100; -S9, 10.0 µM/plate) was 104.5 ± 9.2 revertants/plate, the “TA100 MR (mutagenicity ratio)” value (S. typhimurium TA100; -S9, 50.0 µM/plate) was 0.9 and the TA100 revertants/plate (S. typhimurium TA100; -S9, 50.0 µM/plate) was 87.5 ± 7.8 revertants/plate. The “TA100 MR (mutagenicity ratio)” value (S. typhimurium TA100; -S9, 100.0 µM/plate) was 1.0, the TA100 revertants/plate (S. typhimurium TA100; -S9, 100.0 µM/plate) was 99.5 ± 0.7 revertants/plate and the “mutagenicity in bacteria” value [7] was “no mutagenicity at any of the concentrations tested”.
